In one assay the test system is HCV 1a replicon. The assay can be described thus: Cell-based HCV replicon assay (TaqMan), genotype 1a replicon. The note with it: Hepatitis C virus, 72 h, HCV genotype 1a replicon cells, replicon RNA by real time PCR, day 3; EC90 = concentration for ΔCT=3.2 over baseline. Summed up:
(§1)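 Replicon cells seeded at 5000 cells/well with compound as 10 serial 2-fold dilutions (top 250 μM to 1 μM), 0.5% DMSO, 5% FBS, 3 days. NS5B replicon RNA quantified by multiplex TaqMan RT-PCR against GAPDH. EC50 = concentration giving ΔCT=1 over baseline; EC90 = ΔCT=3.2, from sigmoid fit.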

In the next assay the test system is HCV 1b replicon. Kind of assay: Cell-based HCV replicon assay (TaqMan), genotype 1b replicon. Conditions: Hepatitis C virus, 72 h, HCV genotype 1b replicon cells, replicon RNA by real time PCR, day 3; EC90 = concentration for ΔCT=3.2 over baseline. The procedure:
Measurement of inhibition by compounds of the present invention was performed using the HCV replicon system. Several different replicons encoding different HCV genotypes or mutations were used. In addition, potency measurements were made using different formats of the replicon assay, including different ways of measurements and different plating formats. See Jan M. Vrolijk et al., A replicons-based bioassay for the measurement of interferons in patients with chronic hepatitis C, 110 J. VIROLOGICAL METHODS 201 (2003); Steven S. Carroll et al., Inhibition of Hepatitis C Virus RNA Replication by 2′-Modified Nucleoside Analogs, 278(14) J. BIOLOGICAL CHEMISTRY 11979 (2003). However, the underlying principles are common to all of these determinations, and are outlined below.
TaqMan®-Based Assay Protocol:
Compounds of the present invention were assayed for cell-based anti-HCV activity using the following protocol. Replicon cells were seeded at 5000 cells/well in 96-well collagen I-coated Nunc plates in the presence of the test compound. Various concentrations of test compound, typically in 10 serial 2-fold dilutions, were added to the assay mixture, with the starting concentration ranging from 250 μM to 1 μM. The final concentration of DMSO was 0.5%, fetal bovine serum was 5%, in the assay media. Cells were harvested on day 3 by the addition of 1× cell lysis buffer (Ambion cat #8721). The replicon RNA level was measured using real time PCR (TaqMan® assay). The amplicon was located in 5B. The PCR primers were: 5B.2F, ATGGACAGGCGCCCTGA (SEQ. ID NO. 1); 5B.2R, […] (SEQ. ID NO. 2); the probe sequence was FAM-labeled CACGCCATGCGCTGCGG (SEQ. ID NO. 3). GAPDH RNA was used as endogenous control and was amplified in the same reaction as NS5B (multiplex PCR) using primers and VIC-labeled probe recommended by the manufacturer (PE Applied Biosystem). The real-time […] reactions were run on ABI PRISM 7900HT Sequence Detection System using the following program: 48° C. for 30 minutes, 95° C. for 10 minutes, 40 cycles of 95° C. for 15 sec, 60° C. for 1 minute. The ΔCT values (CT5B-CTGAPDH) were plotted against the concentration of test compound and fitted to the sigmoid dose-response model using XLfit4 (MDL). EC50 was defined as the concentration of inhibitor necessary to achieve ΔCT=1 over the projected baseline; EC90 the concentration necessary to achieve ΔCT=3.2 over the baseline. Alternatively, to quantitate the absolute amount of replicon RNA, a standard curve was established by including serially diluted T7 transcripts of replicon RNA in the Taqman assay. All TaqMan® reagents were from PE Applied Biosystems. Such an assay procedure was described in detail in e.g. Malcolm et al., Antimicrobial Agents and Chemotherapy 50: 1013-1020 (2006).
HCV replicon EC50 assay data for various replicons and mutants was calculated for selected compounds of the present invention using this method and is provided in the tables above herein.

The test system of a further assay is HCV 1a Y93H replicon. The assay can be described thus: Cell-based HCV replicon assay (TaqMan), 1a Y93H mutant replicon. The note with it: Hepatitis C virus, 72 h, read-out: 1a Y93H EC90, HCV 1a Y93H mutant replicon cells, replicon RNA by real time PCR, day 3; EC90 = concentration for ΔCT=3.2 over baseline. The essentials: as §1
The next assay concerns HCV 2b replicon. The assay can be described thus: Cell-based HCV replicon assay (TaqMan), genotype 2b replicon. Conditions: Hepatitis C virus, 72 h, read-out: 2b EC90, HCV genotype 2b replicon cells, replicon RNA by real time PCR, day 3; EC90 = concentration for ΔCT=3.2 over baseline. The essentials:
as §1

Drawing on US20150057246A1, “SILYL-CONTAINING HETEROCYCLIC COMPOUNDS AND METHODS OF USE THEREOF FOR THE TREATMENT OF VIRAL DISEASES” (priority 2012, published 2015), this text covers EC90 for one compound.

Bounds are passed on as bounds.

As for `COC(=O)N[C@H](C(=O)N1C[Si](C)(C)C[C@@H]1c1nc2ccc3cc(-c4ccc5cc(-c6cnc([C@H]7CCCN7C(=O)[C@H](NC(=O)OC)C(C)C)[nH]6)ccc5c4)ccc3c2[nH]1)C1CCOCC1` [Compound 118], the EC90 with HCV 1a replicon was 0.023 nM; in the assay on HCV 1b replicon it was greater than 1 nM; in the assay on HCV 1a Y93H replicon it was greater than 100 nM; in the assay on HCV 2b replicon, greater than 100 nM.
